Reference: patent publication US5514694A, “Peptidyl ketoamides” (Georgia Tech Research Corp, priority 1993, dated 1996)
Read-outs that look alike come from different tables or passages of the source.

How the values were obtained:
Format in all cases: biochemical
calpain II from rabbit = test: Calpain II inhibition, Suc-Leu-Tyr-AMC hydrolysis (KI); conditions: Table 1, Z-Leu--AA--CONHR; read-out: KI Cal II
Method: (§1) HEPES, heparin, and A23187 were obtained from Calbiochem. Suc-Leu-Tyr-AMC and chromogenic substrates were obtained from Sigma. Calpain I was purified from human erythrocytes according to the method of Kitahara (Kitahara et al., J. Biochem. 95, 1759-1766) omitting the Blue-Sepharose step. Calpain II from rabbit muscle and cathepsin B were purchased from Sigma. Papain was purchased from Calbiochem.
(§2) Peptide α-ketoamides were assayed as reversible enzyme inhibitors. Various concentrations of inhibitors in Me2 SO were added to the assay mixture which contained buffer and substrate. The reaction was started by the addition of the enzyme and the hydrolysis rates were followed spectrophotometrically or fluorimetrically.
(§3) Calpain I from human erythrocytes and calpain II from rabbit were assayed using Suc-Leu-Tyr-AMC Sasaki et al., J. Biol. Chem. 259, 12489-12494 (1984); incorporated herein by reference!, and the AMC (7-amino-4-methylcoumarin) release was followed fluorimetrically (excitation at 380 nm, and emmision at 460 nm). Calpains were assayed in 25 mM Tris pH=8.0, 10 mM CaC12. Fluorescence was followed using a Gilson FL-1A fluorometer or a Perkin-Elmer 203 Fluorescence spectrometer. Cathepsin B was assayed in 20 mM sodium acetate pH=5.2, 0.5 mM dithiothreitol using Bz-Phe-Val-Arg-p-nitroanilide as substrate. Alternately, cathepsin B was assayed with Z-Arg-Arg-AFC Barrett and Kirschke, Methods Enzymol. 80, 535-561 (1981); incorporated herein by reference!, and the AFC (7-amino-4-trifluoromethylcoumarin) release was followed fluorimetrically (excitation at 400 nm and emmision at 505 nm). Papain was assayed in 100 mM KPO4, 1 mM EDTA, 2.5 mM cysteine pH=6.0 using Bz-Arg-AMC or Bz-Arg-NA Kanaoka et al., Chem. Pharm. Bull. 25, 3126-3128 (1977); incorporated herein by reference! as a substrate. The AMC (7-amino-4-methylcoumarin) release was followed fluorimetrically (excitation at 380 nm, and emmision at 460 nm). Enzymatic hydrolysis rates were measured at various substrate and inhibitor concentrations, and KI values were determined by either Lineweaver-Burk plots or Dixon plots.
(§4) A 0.1M Hepes, 0.5M NaCl, pH 7.5 buffer was utilized for human leukocyte elastase (HLE), porcine pancreatic elastase (PPE), chymotrypsin and cathepsin G. A 0.1 Hepes, 0.01 M CaCl2, pH 7.5 buffer was utilized for trypsin, plasmin, and coagulation enzymes. A 50 mM Tris.HCl, 2 mM EDTA, 5 mM cysteine, pH 7.5 was used as a buffer for papain. A 88 mM KH2 PO4, 12 mM Na2 HPO4, 1.33 mM EDTA, 2.7 mM cysteine, pH 6.0 solution was used as a buffer for cathepsin B. A 20 mM Hepes, 10 mM CaCl2, 10 mM mercatoethanol, pH 7.2 buffer was utilized for calpain I and calpain II.

[1] = target: T1, Calpain I from human erythrocytes (Homo sapiens, UniProt P07384); test: Calpain I inhibition, Suc-Leu-Tyr-AMC hydrolysis (KI); conditions: read-out: KI Cal I
T1 construct: Calpain I was purified from human erythrocytes; from tissue; host or cells: human erythrocytes
T1 sequence (P07384 1-714): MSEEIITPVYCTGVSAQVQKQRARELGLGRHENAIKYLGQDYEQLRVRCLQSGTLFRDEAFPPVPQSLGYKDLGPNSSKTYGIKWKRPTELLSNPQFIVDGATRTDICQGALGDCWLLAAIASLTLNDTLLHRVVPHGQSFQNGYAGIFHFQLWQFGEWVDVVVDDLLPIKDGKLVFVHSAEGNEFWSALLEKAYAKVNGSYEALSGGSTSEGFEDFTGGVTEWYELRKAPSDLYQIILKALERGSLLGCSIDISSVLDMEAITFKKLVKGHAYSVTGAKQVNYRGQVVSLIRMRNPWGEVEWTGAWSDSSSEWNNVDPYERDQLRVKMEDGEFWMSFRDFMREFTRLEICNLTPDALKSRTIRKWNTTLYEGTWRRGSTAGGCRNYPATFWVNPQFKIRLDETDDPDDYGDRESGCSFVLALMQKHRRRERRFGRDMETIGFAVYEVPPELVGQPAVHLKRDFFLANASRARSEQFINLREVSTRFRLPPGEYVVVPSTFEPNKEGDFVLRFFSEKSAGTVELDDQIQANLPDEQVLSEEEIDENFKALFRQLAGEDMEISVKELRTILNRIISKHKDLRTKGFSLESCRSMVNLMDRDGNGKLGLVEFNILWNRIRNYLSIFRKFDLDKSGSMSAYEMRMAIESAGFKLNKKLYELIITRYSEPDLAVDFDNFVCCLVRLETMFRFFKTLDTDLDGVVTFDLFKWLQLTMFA
T1 sequence (P04632 1-268 partner): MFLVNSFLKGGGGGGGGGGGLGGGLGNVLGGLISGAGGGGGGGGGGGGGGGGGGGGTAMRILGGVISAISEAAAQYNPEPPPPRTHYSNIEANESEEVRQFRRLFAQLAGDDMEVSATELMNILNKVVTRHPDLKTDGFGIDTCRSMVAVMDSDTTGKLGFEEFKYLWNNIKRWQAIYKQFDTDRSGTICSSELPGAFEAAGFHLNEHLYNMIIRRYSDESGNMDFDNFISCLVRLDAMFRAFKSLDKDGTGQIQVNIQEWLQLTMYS
Summary of the method: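 Reversible KI values came from Lineweaver-Burk or Dixon plots of rates at varied substrate and inhibitor (in Me2SO) levels, with reactions started by enzyme. Calpains (human erythrocyte I, rabbit muscle II) hydrolysed Suc-Leu-Tyr-AMC in 25 mM Tris pH 8.0, 10 mM CaCl2 (ex 380/em 460 nm). Cathepsin B used Bz-Phe-Val-Arg-pNA (20 mM acetate pH 5.2, 0.5 mM DTT) or Z-Arg-Arg-AFC.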

[2] = target: T2, human leukocyte elastase (HLE) (Homo sapiens, UniProt P08246); test: HLE inhibition, MeO-Suc-Ala-Ala-Pro-Val-NA hydrolysis; conditions: for IC50: Table 4, Z-Leu--AA--CONH-R
T2 sequence (P08246 30-267): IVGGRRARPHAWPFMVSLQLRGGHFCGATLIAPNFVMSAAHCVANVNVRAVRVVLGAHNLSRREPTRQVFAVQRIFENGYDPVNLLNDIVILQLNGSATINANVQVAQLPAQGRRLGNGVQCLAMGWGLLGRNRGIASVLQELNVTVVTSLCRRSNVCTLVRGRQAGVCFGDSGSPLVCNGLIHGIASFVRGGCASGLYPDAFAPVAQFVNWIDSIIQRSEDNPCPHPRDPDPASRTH
Method: as §2, §4
(§5) HLE and PPE were assayed with MeO-Suc-Ala-Ala-Pro-Val-NA and Suc-Ala-Ala-Ala-NA, respectively Nakajima et al., J. Biol. Chem. 254, 4027-4032 (1979); incorporated herein by reference!. Human leukocyte cathepsin G and chymotrypsin Aα were assayed with Suc-Val-Pro-Phe-NA Tanaka et al., Biochemistry 24, 2040-2047 (1985); incorporated herein by reference!. The hydrolysis of peptide 4-nitroanilides was measured at 410 nm ε410 =8800 M^-1 cm^-1; Erlanger et al., Arch. Biochem. Biophys. 95, pp 271-278 (1961); incorporated herein by reference!. Trypsin, thrombin, human plasma kallikrein, porcine pancreatic kallikrein, human factor XIa, and human plasmin were assayed with Z-Arg-SBzl or Z-Gly-Arg-SBu-i McRae et al., Biochemistry 20, 7196-7206 (1981); incorporated herein by reference!. All peptide thioester hydrolysis rates were measured with assay mixtures containing 4,4'-dithiodipyridine ε324 =19800 M^-1 cm^-1; Grasetti & Murray, Arch. Biochem. Biophys. 119, 41-49 (1967); incorporated herein by reference!.

cathepsin B = target: T3, cathepsin B (Homo sapiens, UniProt P07858); test: Cathepsin B inhibition (KI); conditions: Table 1, Z-Leu--AA--CONHR; read-out: KI Cat B
T3 construct: purchased Sigma
Method: as §1, §2, §3, §4

[3] = target: T4, Human leukocyte cathepsin G (Homo sapiens, UniProt P08311); test: Cathepsin G inhibition, Suc-Val-Pro-Phe-NA hydrolysis; conditions: for IC50: Table 4, Z-Leu--AA--CONH-R
T4 sequence (P08311 21-255): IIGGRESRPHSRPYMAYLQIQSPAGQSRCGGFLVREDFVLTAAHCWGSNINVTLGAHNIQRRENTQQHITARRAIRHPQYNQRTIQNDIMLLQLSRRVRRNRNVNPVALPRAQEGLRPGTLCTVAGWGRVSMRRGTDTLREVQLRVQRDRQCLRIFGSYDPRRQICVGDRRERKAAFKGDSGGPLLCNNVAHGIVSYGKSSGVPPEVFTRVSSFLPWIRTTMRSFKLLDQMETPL
Method: as §2, §4, §5

| Compound | IC50 [2] [µM] | IC50 [3] [µM] | other results |
| --- | --- | --- | --- |
| CCC(NC(=O)C(CC(C)C)NC(=O)OCc1ccccc1)C(=O)C(=O)NCCCN1CCOCC1 (stereo not drawn) [Z-Leu-Abu-CONH-(CH2)3 -4-morpholinyl, Z-Leu-Abu-CONH--(CH2)3 -4-Morpholinyl] | > 217 | – | Ki (calpain II from rabbit): 0.041 µM; Ki ([1]; Table 1, Z-Leu--AA--CONHR): 0.14 µM; Ki (cathepsin B): 6.9 µM |
| CC[C@H](NC(=O)[C@H](CC(C)C)NC(=O)OCc1ccccc1)C(=O)C(=O)NCC(O)c1ccc(OCc2ccccc2)cc1 (stereo partly drawn) [Z-Leu-Abu-CONH--CH2 CH(OH)C6 H4 (4-OCH2 Ph)] | – | > 102 | Ki ([1]; Table 2, Z-Leu--AA--CONH--CH2 CH(OH)-R): 0.08 µM |
| CCCCCCCNC(=O)C(=O)C(CC)NC(=O)C(CC(C)C)NC(=O)OCc1ccccc1 (stereo not drawn) [Z-Leu-Abu-CONH-C7 H15] | 52 | > 116 | – |
| CCCCCCCCCNC(=O)C(=O)C(CC)NC(=O)C(CC(C)C)NC(=O)OCc1ccccc1 (stereo not drawn) [Z-Leu-Abu-CONH-C9 H19] | 78 | 150 | – |
| CCC(NC(=O)C(CC(C)C)NC(=O)OCc1ccccc1)C(=O)C(N)=O (stereo not drawn) [Z-Leu-Abu-CONH-H] | > 120 | > 217 | – |
| CCC(NC(=O)C(CC(C)C)NC(=O)OCc1ccccc1)C(=O)C(=O)NCC(C)C (stereo not drawn) [Z-Leu-Abu-CONH-i-Bu] | 78 | 134 | – |
| CCCNC(=O)C(=O)C(CC)NC(=O)C(CC(C)C)NC(=O)OCc1ccccc1 (stereo not drawn) [Z-Leu-Abu-CONH-n-Pr] | > 120 | > 217 | – |
| CCCC(NC(=O)C(CC(C)C)NC(=O)OCc1ccccc1)C(=O)C(=O)NCCCN1CCOCC1 (stereo not drawn) [Z-Leu-Nva-CONH-(CH2)3 -4-morpholinyl, Z-Leu-Nva-CONH--(CH2)3 -4-Morpholinyl] | – | – | Ki (calpain II from rabbit): 0.1 µM; Ki ([1]; Table 1, Z-Leu--AA--CONHR): 0.25 µM; Ki (cathepsin B): 4.2 µM |
| CC(C)CC(NC(=O)OCc1ccccc1)C(=O)NC(Cc1ccccc1)C(=O)C(=O)NCCc1ccccc1 (stereo not drawn) [Z-Leu-Phe-CONH-(CH2)2 Ph] | 24 | 112 | – |
| CC(C)CC(NC(=O)OCc1ccccc1)C(=O)NC(Cc1ccccc1)C(=O)C(=O)NCc1ccc2ccccc2n1 (stereo not drawn) [Z-Leu-Phe-CONH-CH2 -2-quinolinyl, Z-Leu-Phe-CONH--CH2 -2-Quinolinyl] | – | – | Ki (calpain II from rabbit): 0.023 µM; Ki ([1]; Table 1, Z-Leu--AA--CONHR): 0.11 µM; Ki (cathepsin B): 0.34 µM |
| CCNC(=O)C(=O)[C@H](Cc1ccccc1)NC(=O)[C@H](CC(C)C)NC(=O)OCc1ccccc1 [Z-Leu-Phe-CONH-Et, Z-Leu-Phe-CO--NH-Et] | 74 | 91 | – |
| Z-Leu-Abu-CONH--(CH2)2 C6 H4 (3-OCH3) [Z-Leu-Abu-CONH-(CH2)2 C6 H4 (3-OCH3)] | – | – | Ki (calpain II from rabbit): 0.086 µM; Ki ([1]; Table 1, Z-Leu--AA--CONHR): 0.11 µM; Ki (cathepsin B): 0.31 µM |

The next lines start with results.

| IC50 [2] [µM] | IC50 [3] [µM] | Compound | other results |
| --- | --- | --- | --- |
| 45 | > 217 | CCCCCCCCNC(=O)C(=O)C(CC)NC(=O)C(CC(C)C)NC(=O)OCc1ccccc1 (stereo not drawn) [Z-Leu-Abu-CONH-C8 H17] | – |
| 38 | – | CCC(NC(=O)C(CC(C)C)NC(=O)OCc1ccccc1)C(=O)C(=O)NCc1ccco1 (stereo not drawn) [Z-Leu-Abu-CONH-CH2 -2-furyl, Z-Leu-Abu-CONH--CH2 -2-Furyl] | Ki (calpain II from rabbit): 0.033 µM; Ki ([1]; Table 1, Z-Leu--AA--CONHR): 0.8 µM; Ki (cathepsin B): 6 µM |
| 63 | 148 | CCCCNC(=O)C(=O)C(CC)NC(=O)C(CC(C)C)NC(=O)OCc1ccccc1 (stereo not drawn) [Z-Leu-Abu-CONH-n-Bu] | – |
| 40 | 58 | CC(C)CC(NC(=O)OCc1ccccc1)C(=O)NC(Cc1ccccc1)C(=O)C(=O)NCC(O)c1ccc(OCc2ccccc2)cc1 (stereo not drawn) [Z-Leu-Phe-CONH--CH2 CH(OH)C6 H4 (4-OCH2 Ph)] | – |
| 22 | 66 | CC(C)C[C@H](NC(=O)OCc1ccccc1)C(=O)N[C@@H](Cc1ccccc1)C(=O)C(=O)NCC(O)c1ccc(OCc2ccccc2)c(OCc2ccccc2)c1 (stereo partly drawn) [Z-Leu-Phe-CONH-C6 H3 (3,4-(OCH2 Ph)2), Z-Leu-Phe-CONH--CH2 CH(OH)C6 H3 (3,4-(OCH2 Ph)2)] | – |
| 40 | 63 | CC(C)CC(NC(=O)OCc1ccccc1)C(=O)NC(Cc1ccccc1)C(=O)C(=O)NCc1ccccc1 (stereo not drawn) [Z-Leu-Phe-CONH-CH2 Ph] | – |
| 100 | 80 | CC(C)C[C@H](NC(=O)OCc1ccccc1)C(=O)N[C@@H](Cc1ccccc1)C(=O)C(N)=O [Z-Leu-Phe-CONH-H] | – |
| 20 | 45 | CC(C)CNC(=O)C(=O)C(Cc1ccccc1)NC(=O)C(CC(C)C)NC(=O)OCc1ccccc1 (stereo not drawn) [Z-Leu-Phe-CONH-i-Bu] | Ki ([3]; Table 4, in brackets under the IC50, read-out: KI Cat G): 21 µM; Ki ([2]; Table 4, in brackets under the IC50): 10 µM |
